Laboratory results published in patent US20190008973A1, “INTRALIPID-IODINE FOR IMAGING” (priority 2017, published 2019).
Where a name gives a salt, the structure may show the parent alone. Read-outs that look alike come from different tables or passages of the source.

How the values were obtained:
PLA(2) and PLC = details: rat, in vivo; cited from earlier work
[1] = test system: propofol-mediated hypotension; details: cited from earlier work
hippocampal slices = details: cited from earlier work
[2] = test system: acetylcholinesterase (AChE) / neuronal degeneration; details: cited from earlier work; for serum AChE: rat, in vivo
free fatty acid efflux = details: cited from earlier work; for I/R-evoked FFA efflux: 20-min ischemia, 40 min reperfusion
post operative delirium = test: Lipid Emulsion Treatment of post operative delirium/POCD, 4 case reports; type: in vivo, human; details: case 1, 60 min
[3] = test system: myocardial ischemia-reperfusion injury; details: cited from earlier work
[4] = test system: fallopian tube and adnexal tissue; details: cited from earlier work
[5] = test system: post ischaemic stunned myocardium; details: dog, in vivo; cited from earlier work
[6] = test system: soft tissue anesthesia (STA); details: in vivo; cited from earlier work
[7] = test system: ischemia-reperfusion (IR) injury; details: cited from earlier work
mitochondrial ATPase = molecular target: T1, mitochondrial ATPase (Homo sapiens, UniProt P06576+P25705); details: cited from earlier work; for kind of inhibition: reciprocal plots
T1 construct: mitochondrial ATPase prepared by the chloroform extraction method; from tissue; host or cells: mitochondria

[8] = test system: lipid-dependent mitochondrial respiration (carnitine exchange); details: cited from earlier work
[9] = test system: bupivacaine cardiotoxicity; set-up: AUC of total bupivacaine, mean (standard deviation) / AUC of the lipid-un-entrapped bupivacaine portion: concentration or dose not given beside the values; details: cited from earlier work
brachial plexus [10] = details: 30 ml; cited from earlier work
bupivacaine mortality = details: cited from earlier work
brachial plexus [11] = details: in vivo; cited from earlier work
brachial plexus [12] = details: in vivo; cited from earlier work; remark: listed apart in the source
[13] = plasma-Intralipid mixture, n=3; cited from earlier work
[14] = test system: bupivacaine-induced asystole; details: cited from earlier work
spinal anesthesia = details: cited from earlier work
total spinal anesthesia [15] = details: in vivo; cited from earlier work
total spinal anesthesia [16] = details: in vivo; cited from earlier work; remark: listed apart in the source
brachial plexus [17] = details: 150 μg clonidine or 200 μg epinephrine with 0.25% bupivacaine; cited from earlier work
[18] = molecular target: T2, N-methyl-D-aspartate receptor channels (Mus musculus, UniProt P35438); details: cited from earlier work
T2 construct: cultured cortical neurons from the mouse; endogenous in cells; host or cells: cultured mouse cortical neurons

[19] = test system: spinal cord ischemia and reperfusion; details: intravenous; cited from earlier work
traumatic brain injury = details: cited from earlier work

T1 sequence (P25705 44-553): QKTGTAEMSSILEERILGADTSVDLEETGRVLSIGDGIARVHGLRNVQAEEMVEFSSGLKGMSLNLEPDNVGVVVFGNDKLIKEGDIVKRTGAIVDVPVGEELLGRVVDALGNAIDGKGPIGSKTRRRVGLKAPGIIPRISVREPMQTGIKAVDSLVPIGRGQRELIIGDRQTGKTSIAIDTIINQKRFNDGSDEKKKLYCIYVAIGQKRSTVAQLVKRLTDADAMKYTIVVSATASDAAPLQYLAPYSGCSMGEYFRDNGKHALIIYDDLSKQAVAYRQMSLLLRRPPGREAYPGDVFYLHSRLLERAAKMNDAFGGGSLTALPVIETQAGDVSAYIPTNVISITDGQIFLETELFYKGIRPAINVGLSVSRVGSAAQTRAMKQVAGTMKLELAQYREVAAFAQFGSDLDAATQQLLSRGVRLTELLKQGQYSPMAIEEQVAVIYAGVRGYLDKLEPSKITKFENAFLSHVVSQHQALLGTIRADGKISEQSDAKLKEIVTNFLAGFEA
T1 sequence (P06576 48-529): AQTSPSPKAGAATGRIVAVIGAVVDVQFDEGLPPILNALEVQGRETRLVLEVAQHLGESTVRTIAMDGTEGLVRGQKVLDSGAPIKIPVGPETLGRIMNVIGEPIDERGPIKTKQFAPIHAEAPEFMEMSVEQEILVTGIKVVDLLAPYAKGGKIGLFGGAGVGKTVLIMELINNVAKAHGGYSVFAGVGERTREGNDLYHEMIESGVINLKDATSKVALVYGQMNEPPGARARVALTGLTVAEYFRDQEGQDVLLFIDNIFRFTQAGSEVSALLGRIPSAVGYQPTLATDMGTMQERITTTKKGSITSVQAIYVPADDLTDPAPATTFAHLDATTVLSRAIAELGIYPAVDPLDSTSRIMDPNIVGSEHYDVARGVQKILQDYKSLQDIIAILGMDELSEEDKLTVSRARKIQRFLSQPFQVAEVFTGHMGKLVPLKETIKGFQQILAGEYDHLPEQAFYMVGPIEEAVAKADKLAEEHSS
T1 sequence (P36542 26-298 partner): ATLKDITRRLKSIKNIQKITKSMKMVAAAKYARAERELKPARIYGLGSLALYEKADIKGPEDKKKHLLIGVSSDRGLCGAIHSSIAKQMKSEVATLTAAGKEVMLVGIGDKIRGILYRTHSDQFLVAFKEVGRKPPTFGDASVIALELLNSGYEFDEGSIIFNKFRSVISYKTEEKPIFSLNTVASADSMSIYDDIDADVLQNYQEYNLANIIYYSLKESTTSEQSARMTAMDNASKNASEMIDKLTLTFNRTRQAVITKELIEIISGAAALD
T1 sequence (P30049 23-168 partner): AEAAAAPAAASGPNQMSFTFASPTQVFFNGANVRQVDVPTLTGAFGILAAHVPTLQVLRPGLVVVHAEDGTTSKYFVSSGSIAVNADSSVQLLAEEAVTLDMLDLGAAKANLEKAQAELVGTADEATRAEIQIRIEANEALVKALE
T1 sequence (P56381 2-51 partner limits assumed): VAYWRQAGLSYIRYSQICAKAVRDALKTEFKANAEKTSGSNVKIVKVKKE

## 4-bromophenylacyl bromide [BPB]
PLA(2) and PLC
  FFA efflux during ischemia-reperfusion injury: significantly inhibited FFA efflux

## 20% BSA
[1]; EEG
  effect on propofol induced cortical burst suppression: −2+/−1%

## CCCCC/C=C\C/C=C\C/C=C\C/C=C\CCCC(=O)O [Arachidonic acid, 5,8,11,14-eicosateraenoic acid]
Hippocampal slices; 1-10 microM
  protection from glutamate and H(2)O(2) injury: dose dependently protected

## CC(C)(c1ccc(OCC2CO2)cc1)c1ccc(OCC2CO2)cc1 (stereo not drawn) [BADGE, bisphenol A diglycidyl ether]
Hippocampal slices
  effect on neuroprotection by arachidonic acid: completely abolished

## O=C1O/C(=C/Br)CCC1c1cccc2ccccc12 (stereo not drawn) [BEL, bromoenol lactone]
PLA(2) and PLC
  FFA efflux during ischemia-reperfusion injury: had only minimal effects on FFA efflux

## O=C(/C=C/c1ccc(O)c(O)c1)OCCc1ccccc1 [CAPE, caffeic acid phenethyl ester]
[2]; histologic examination
  neuronal degeneration: significant effect on protection of neuronal degeneration
[2]
  serum AChE: inhibited AChE

## C[C@@H]1C[C@@H]([C@H](O)CC2CC(=O)NC(=O)C2)C(=O)[C@@H](C)C1 [CHX, cycloheximide]
Hippocampal slices; BADGE 100 microM, CHX 30 microM
  effect on neuroprotection by arachidonic acid: completely abolished

## O=C1CN(/N=C/c2ccc(-c3ccc([N+](=O)[O-])cc3)o2)C(O)=N1 [Dantrolene]
Free fatty acid efflux
  I/R-evoked FFA efflux: significantly inhibited I/R-evoked release of docosahexaenoic, arachidonic, linoleic and oleic acids

## O=C(CCCN1CCC(O)(c2ccc(Cl)cc2)CC1)c1ccc(F)cc1 [Haloperidol]
Post operative delirium
  agitation after conventional sedatives: had not improved

## FC(F)OC(Cl)C(F)(F)F (stereo not drawn) [IS, isoflurane]
[3]; 3 h after reperfusion, group C 676+/−82
  plasma lactate dehydrogenase: 456+/−58 U/L
[3]; 3 h after reperfusion, group C 2373+/−529
  plasma creatine kinase: 1725+/−230 U/L
[3]; group C 39%+/−6%
  myocardial infarct size 3 h after reperfusion: 20%+/−8%

## CNC(=O)c1c(I)c(NC(C)=O)c(I)c(C(=O)O)c1I.CNC[C@H](O)[C@@H](O)[C@H](O)[C@H](O)CO [Iothalamate meglumine 60%, iothalamate meglumine]
[4]; rabbit, in vivo
  pathologic response in tube or peritoneal cavity: mild inflammatory infiltrate, mucosal edema, giant cell reaction, and periovarian adhesions

## CC(=O)N(CC(O)CO)c1c(I)c(C(=O)NCCO)c(I)c(C(=O)NCC(O)CO)c1I (stereo not drawn) [Ioxilan, ioxilan]
[4]; histology
  pathologic response in tube or peritoneal cavity: no pathologic response

## N[C@H](C(=O)O)c1ccc(O)cc1 [Oxfenicine, oxfenicine]
[5]
  effect of pretreatment on benefit of Intralipid: completely abolished

## Cc1ccc(N(CC2=NCCN2)c2cccc(O)c2)cc1 [PM (OraVerse), phentolamine mesylate]
[6]
  duration of residual STA: significantly decrease the duration of residual STA
  safety outcomes in school-based dental clinic: improve safety outcomes

## Cn1cc(C2=C(c3ccc(Cl)cc3Cl)C(=O)NC2=O)c2ccccc21 [SB216763]
[7]; 1% ILP 15 min
  cardioprotection in sham-operated hearts exposed to IR: conferred cardioprotection
[7]
  cardioprotection in hypertrophied myocardium: failed to exert cardioprotection

## C/C=C(/C)C(=O)O[C@H]1C(C)=C2[C@H]([C@@H]1OC(=O)CCCCCCC)[C@@](C)(OC(C)=O)C[C@H](OC(=O)CCC)[C@@]1(O)[C@H]2OC(=O)[C@@]1(C)O [Thapsigargin]
Free fatty acid efflux; rat, in vivo
  FFA efflux in the absence of ischemia: elicited significant elevations in the efflux of myristic, arachidonic and linoleic acids

## COc1ccc2c(c1)CC[C@@H]1[C@@H]2CC[C@]2(C)[C@@H](NCCCCCCN3C(=O)C=CC3=O)CC[C@@H]12 [U73122]
PLA(2) and PLC
  FFA efflux during ischemia-reperfusion injury: had no observed effect

## C1CCC[C@H]2CCCN3CC[C@@H](CCCCCC[C@@H]4CCCN5CC[C@@H](CC1)O[C@@H]45)O[C@@H]23 [Xestospongin C]
Free fatty acid efflux
  I/R-evoked FFA efflux: failed to affect I/R-evoked FFA efflux

## CCOC(=O)c1ccc(N)cc1 [benzocaine]
Mitochondrial ATPase
  inhibition of the enzyme: inhibits the enzyme at all pH values

## CN1[C@H]2CC[C@@H]1[C@@H](C(=O)O)[C@@H](OC(=O)c1ccccc1)C2 [benzoylecgonine]
[8]
  lipid-dependent mitochondrial respiration: not

## CCCCN1CCCCC1C(=O)Nc1c(C)cccc1C (stereo not drawn) [bupivacaine]
[9]; after Intralipid
  AUC of the lipid-un-entrapped bupivacaine portion: 97.0(14.5) mg·min/L
  AUC of total bupivacaine, mean (standard deviation): 105.2(13.6) mg·min/L
  un-entrapped AUC lower than total bupivacaine: 8%
[9]; after Ringer's acetate
  AUC of total bupivacaine, mean (standard deviation): 88.1(7.1) mg·min/L
Brachial plexus [10]
  duration of motor block: 12.94 h
  duration of sensory block: 11.58 h
  onset of motor block: 21.45 ± 4.45 min
  onset of sensory block: 16.85 ± 6.67 min
Bupivacaine mortality; resuscitation with 30% Intralipid
  dose of bupivacaine required to cause death in 50% of animals: 18.5 mg/kg
Bupivacaine mortality; resuscitation with saline
  dose of bupivacaine required to cause death in 50% of animals: 12.5 mg/kg
Brachial plexus [11]
  patients requiring supplementation: 9 of the 22
Brachial plexus [12]
  muscle relaxation judged as excellent: 30/49
[13]
  mean lipid:aqueous ratio of concentrations: 11.9+/−1.77
[14]; 30% Intralipid
  concentration of bupivacaine in plasma, mean+/−SE: 212+/−45 micrograms per millilitre
[14]; after saline pretreatment
  median dose of bupivacaine producing asystole: 17.7 milligrams per kilogram
[14]; saline
  concentration of bupivacaine in plasma, mean+/−SE: 93.3+/−7.6 micrograms per millilitre
Spinal anesthesia; long acting spinal anesthetic
  Duration of procedures it is appropriate for: 2 to 2.5 h
Spinal anesthesia; spinal anesthetic, longer with isobaric forms
  Onset: 5 to 10 min
Total spinal anesthesia [15]
  further time to consciousness: 65 min
  time to spontaneous respiration: 120 min
Total spinal anesthesia [16]
  mean duration of action: 1.511 to 3 h

## C[N+](C)(C)CC[N+]1(C)Cc2c(Cl)c(Cl)c(Cl)c(Cl)c2C1 [chlorisondamine]
[1]; 2.5 mg/kg IV
  lowering of MAP: 56+/−3%

## CN(C)CCCN1c2ccccc2Sc2ccc(Cl)cc21 [chlorpromazine]
Mitochondrial ATPase
  kind of inhibition: non-competitive

## CCOP(=S)(OCC)Oc1nc(Cl)c(Cl)cc1Cl [chlorpyriphos, Chlorpyriphos]
[2]
  serum AChE: inhibited AChE

## Clc1cccc(Cl)c1N=C1NCCN1 [clonidine, clonidine hydrochloride]
Brachial plexus [17]
  duration of block: 994.2 ± 34.2 min

## CCOC(=O)[C@@H]1C2CCC(C[C@@H]1OC(=O)c1ccccc1)N2C (stereo partly drawn) [cocaethylene]
[8]
  lipid-dependent mitochondrial respiration: inhibited

## CCCCOc1cc(C(=O)NCCN(CC)CC)c2ccccc2n1 [dibucaine]
Mitochondrial ATPase
  kind of inhibition: non-competitive

## CNC(=O)c1c(I)c(NC(C)=O)c(I)c(C(=O)O)c1I.CNC[C@H](O)[C@@H](O)[C@H](O)[C@H](O)CO [iothalamate meglumine 30%, iothalamate meglumine]
[4]; rabbit, in vivo
  pathologic response in tube or peritoneal cavity: no pathologic response

## CNC1(c2ccccc2Cl)CCCCC1=O (stereo not drawn) [ketamine]
[18]
  effect on emulsion-induced currents: inhibited

## CCN(CC)CC(=O)Nc1c(C)cccc1C [lidocaine]
Mitochondrial ATPase
  kind of inhibition: non-competitive
Total spinal anesthesia [15]
  further time to consciousness: 80 min
  time to spontaneous respiration: 45 min

## Cc1ncc2n1-c1ccc(Cl)cc1C(c1ccccc1F)=NC2 [midazolam]
Post operative delirium
  agitation after conventional sedatives: had not improved

## CCCC(C)C1(CC)C(=O)NC(=S)NC1=O (stereo not drawn) [thiopental]
[19]
  injured animals: 100%

## CN1CCN(CCCN2c3ccccc3Sc3ccc(C(F)(F)F)cc32)CC1 [trifluoperazine]
Free fatty acid efflux
  I/R-evoked FFA efflux: very effective in suppressing ischemia/reperfusion evoked release of all six FFAs

## DL-AP5
[18]
  effect on emulsion-induced currents: inhibited

## Ryanodine
Free fatty acid efflux
  I/R-evoked FFA efflux: significantly enhanced ischemia/reperfusion-elicited efflux of linoleic acid

## conjugated linoleic acids [CLA]
Traumatic brain injury; CCI-injured, saline 30.7±5.5
  latency to find the hidden MWM platform: 66.8 ± 10.6 s
Traumatic brain injury; Sham, saline 8.8±1.7
  latency to find the hidden Morris Water Maze platform: 40.3 ± 13.0 s

## ecgonine
[8]
  lipid-dependent mitochondrial respiration: not

## picrotoxin
[18]
  effect on emulsion-induced currents: not affected
